The text below walks through data of patent publication US12441695B2, “Substituted thiadiazinone dioxide and preparation method therefor, herbicidal composition, and application therefor” (Qingdao Kingagroot Chemical Compound Co., Ltd., priority 2019, dated 2025).

Structures are written as SMILES.

Data set [1] concerns major crops (wheat, corn, rice, soybean, cotton, oilseed rape, millet, sorghum). Description: Experiment on weeding effect in post-emergence stage (crops). It counts as in vivo. The conditions noted are these: 600 g/ha active ingredient plus water 450 kg/ha, 3 weeks after application; for corn plant damage level (growth control rate): crop corn; for rice plant damage level (growth control rate): crop rice; for soybean plant damage level (growth control rate): crop soybean. On the procedure:
(§1) The above growth control rates are fresh weight control rates.
(§2) (1) Experiment on weeding effect in post-emergence stage: monocotyledonous and dicotyledonous weed seeds and major crop seeds (wheat, corn, rice, soybean, cotton, oilseed rape, millet, sorghum) were placed in plastic pots filled with soil, then covered with 0.5-2 cm of soil, allowed to grow in a good greenhouse environment. After 2-3 weeks of sowing, the test plants were treated. The tested compounds of the present invention were respectively dissolved in acetone, then added with Tween 80, diluted with a certain amount of water to obtain a solution with a certain concentration, and sprayed with a spray tower onto the plants.

Data set [2] has as its system monocotyledonous and dicotyledonous weeds. Description: Experiment on weeding effect in post-emergence stage (weeds). It counts as in vivo. As to conditions: 600 g/ha active ingredient plus water 450 kg/ha, 3 weeks after application, fresh weight control rate; for Amaranthus retroflexus activity level (growth control rate): fomesafen-resistant Amaranthus retroflexus.
Description: The activity level criteria for plant damage (i.e., growth control rate) are as follows: • Level 5: growth control rate is above 85%; • Level 4: growth control rate is greater than or equal to 60% and less than 85%; • Level 3: growth control rate is greater than or equal to 40% and less than 60%; • Level 2: growth control rate is greater than or equal to 20% and less than 40%; • Level 1: growth control rate is greater than or equal to […]; • Level 0: growth control rate is less than 5%.
as §1
as §2, with “plants. After the application, the plants were cultured for 3 weeks in the greenhouse, and then the experimental results of the weeding were listed in Table 2.” for “plants.”

Turning to `COCN1c2ccc(F)cc2C(=O)N(C(C)C)S1(=O)=O` [Compound 56], in data set [1], the “corn plant damage level (growth control rate)” value (from here on “corn plant damage level”) is recorded as 0 (Level 0: growth control rate is less than 5%), the “rice plant damage level (growth control rate)” value (from here on “rice plant damage level”) is listed as 0 (Level 0: growth control rate is less than 5%) and the “soybean plant damage level (growth control rate)” value (from here on “soybean plant damage level”) was 0 (Level 0: growth control rate is less than 5%). Besides, the “Amaranthus retroflexus activity level (growth control rate)” value (“Amaranthus retroflexus activity level” below) in data set [2] is 3 (Level 3: growth control rate is greater than or equal to 40% and less than 60%).

In the case of `CC(=O)N1c2ccc(F)cc2C(=O)N(C(C)C)S1(=O)=O` [Compound 62], in data set [1], the “corn plant damage level” value was 0 (Level 0: growth control rate is less than 5%), the “rice plant damage level” value is listed as 0 (Level 0: growth control rate is less than 5%) and the “soybean plant damage level” value is given as 0 (Level 0: growth control rate is less than 5%). Besides, in data set [2], the “Amaranthus retroflexus activity level” value was 5 (Level 5: growth control rate is above 85%); the “Echinochloa crus-galli activity level (growth control rate)” value (shortened to “Echinochloa crus-galli activity level”) was 3 (Level 3: growth control rate is greater than or equal to 40% and less than 60%); the “Setaria viridis activity level (growth control rate)” value (“Setaria viridis activity level” below) is 3 (Level 3: growth control rate is greater than or equal to 40% and less than 60%).

On to `CC(C)OC(=O)N1c2ccc(F)cc2C(=O)N(C(C)C)S1(=O)=O` [Compound 63], for which, in data set [1], the “corn plant damage level” value is recorded as 0 (Level 0: growth control rate is less than 5%), the “rice plant damage level” value is 0 (Level 0: growth control rate is less than 5%) and the “soybean plant damage level” value is given as 0 (Level 0: growth control rate is less than 5%). In data set [2], the “Amaranthus retroflexus activity level” value is recorded as 5 (Level 5: growth control rate is above 85%); the “Digitaria sanguinalis activity level (growth control rate)” value (shortened to “Digitaria sanguinalis activity level”) was 3 (Level 3: growth control rate is greater than or equal to 40% and less than 60%); the “Echinochloa crus-galli activity level” value is 4 (Level 4: growth control rate is greater than or equal to 60% and less than 85%); the “Setaria viridis activity level” value was 3 (Level 3: growth control rate is greater than or equal to 40% and less than 60%).

On to `CCOC(=O)OC(C)N1c2ccc(F)cc2C(=O)N(C(C)C)S1(=O)=O` (stereo not drawn) [Compound 64], for which, in data set [1], the “corn plant damage level” value was 0 (Level 0: growth control rate is less than 5%), the “rice plant damage level” value was 0 (Level 0: growth control rate is less than 5%) and the “soybean plant damage level” value is recorded as 0 (Level 0: growth control rate is less than 5%). In addition, in data set [2], the “Amaranthus retroflexus activity level” value is reported as 5 (Level 5: growth control rate is above 85%); the “Digitaria sanguinalis activity level” value was 3 (Level 3: growth control rate is greater than or equal to 40% and less than 60%); the “Echinochloa crus-galli activity level” value is 4 (Level 4: growth control rate is greater than or equal to 60% and less than 85%); the “Setaria viridis activity level” value was 3 (Level 3: growth control rate is greater than or equal to 40% and less than 60%).

In the case of `CC(C)N1C(=O)c2cc(F)cnc2NS1(=O)=O` [Compound 75], in data set [1], the “corn plant damage level” value was 1 (Level 1: growth control rate is greater than or equal to 500 and less than 200%); the “rice plant damage level” value was 1 (Level 1: growth control rate is greater than or equal to 500 and less than 200%). Moreover, in data set [2], the “Amaranthus retroflexus activity level” value is 4 (Level 4: growth control rate is greater than or equal to 60% and less than 85%); the “Echinochloa crus-galli activity level” value was 3 (Level 3: growth control rate is greater than or equal to 40% and less than 60%); the “Setaria viridis activity level” value was 3 (Level 3: growth control rate is greater than or equal to 40% and less than 60%).

With `CC(C)N1C(=O)c2cc(F)cc(F)c2NS1(=O)=O` [Compound 142], in data set [1], the “corn plant damage level” value is 1 (Level 1: growth control rate is greater than or equal to 500 and less than 200%); the “rice plant damage level” value was 1 (Level 1: growth control rate is greater than or equal to 500 and less than 200%); the “soybean plant damage level” value is 1 (Level 1: growth control rate is greater than or equal to 500 and less than 200%). In data set [2], the “Amaranthus retroflexus activity level” value is on record as 5 (Level 5: growth control rate is above 85%), the “Digitaria sanguinalis activity level” value is listed as 5 (Level 5: growth control rate is above 85%), the “Echinochloa crus-galli activity level” value is reported as 5 (Level 5: growth control rate is above 85%) and the “Setaria viridis activity level” value is 5 (Level 5: growth control rate is above 85%).

With `CC(C)N1C(=O)c2cc(F)cc(Br)c2NS1(=O)=O` [Compound 143], in data set [1], the “corn plant damage level” value was 1 (Level 1: growth control rate is greater than or equal to 500 and less than 200%); the “rice plant damage level” value is listed as 0 (Level 0: growth control rate is less than 5%); the “soybean plant damage level” value was 1 (Level 1: growth control rate is greater than or equal to 500 and less than 200%). Besides, in data set [2], the “Amaranthus retroflexus activity level” value is recorded as 5 (Level 5: growth control rate is above 85%); the “Digitaria sanguinalis activity level” value was 5 (Level 5: growth control rate is above 85%); the “Echinochloa crus-galli activity level” value was 4 (Level 4: growth control rate is greater than or equal to 60% and less than 85%); the “Setaria viridis activity level” value is on record as 5 (Level 5: growth control rate is above 85%).

`CC(C)N1C(=O)c2cc(F)cc(Cl)c2NS1(=O)=O` [Compound 144]: in data set [1], the “corn plant damage level” value is 1 (Level 1: growth control rate is greater than or equal to 500 and less than 200%); the “rice plant damage level” value was 0 (Level 0: growth control rate is less than 5%); the “soybean plant damage level” value is 1 (Level 1: growth control rate is greater than or equal to 500 and less than 200%). In addition, in data set [2], the “Amaranthus retroflexus activity level” value is reported as 5 (Level 5: growth control rate is above 85%), the “Digitaria sanguinalis activity level” value is listed as 5 (Level 5: growth control rate is above 85%), the “Echinochloa crus-galli activity level” value was 5 (Level 5: growth control rate is above 85%) and the “Setaria viridis activity level” value is given as 5 (Level 5: growth control rate is above 85%).

As for `CC(C)N1C(=O)c2cc(F)cc(I)c2NS1(=O)=O` [Compound 145], in data set [1], the “corn plant damage level” value was 1 (Level 1: growth control rate is greater than or equal to 500 and less than 200%); the “rice plant damage level” value is on record as 0 (Level 0: growth control rate is less than 5%); the “soybean plant damage level” value is given as 0 (Level 0: growth control rate is less than 5%). For the same compound, in data set [2], the “Amaranthus retroflexus activity level” value was 4 (Level 4: growth control rate is greater than or equal to 60% and less than 85%); the “Digitaria sanguinalis activity level” value was 4 (Level 4: growth control rate is greater than or equal to 60% and less than 85%); the “Echinochloa crus-galli activity level” value is 4 (Level 4: growth control rate is greater than or equal to 60% and less than 85%); the “Setaria viridis activity level” value is 5 (Level 5: growth control rate is above 85%).
